Experiments:
Assay type in all cases: in vivo
[1] = system: purebred beagle puppies; assay: Maze test of the ability of puppies to learn in a training environment (success criteria); details: puppy and maternal animal
Protocol: (§1) A study is conducted to determine effect of compositions described herein upon the ability of puppies to learn in a training environment.
Ten purebred beagle puppies are randomized and assigned to Group 1 (n=3), Group 2 (n=3), or Group 3 (n=4). Each of the puppies is about nine weeks of age. Their respective weights are appropriate for age and body size.
Three treatment compositions are utilized for the study. These compositions are: 1) for Group 1, a nutritionally balanced food composition comprising an essential fatty acid component comprising about 0.14% DHA, by weight of the composition; 2) for Group 2, a nutritionally balanced food composition which is similar in all respects except that the essential fatty acid component comprises about 0.08% DHA, by weight of the composition; and 3) for Group 3, a nutritionally balanced food composition which is similar in all respects except that the essential fatty acid component comprises about 0.02% DHA, by weight of the composition.
The respective maternal animal for each puppy in Group 1 receives, ad libitum, a nutritionally balanced food composition comprising an essential fatty acid component comprising about 0.14% DHA, by weight of the composition, during gestation, nursing, or weaning (or any combination thereof) of such puppy.
The respective maternal animal for each puppy in Group 2 receives, ad libitum, a nutritionally balanced food composition comprising an essential fatty acid component comprising about 0.08% DHA, by weight of the composition, during gestation, nursing, or weaning (or any combination thereof) of such puppy.
The respective maternal animal for each puppy in Group 3 receives, ad libitum, a nutritionally balanced food composition comprising an essential fatty acid component comprising about 0.02% DHA, by weight of the composition, during gestation, nursing, or weaning (or any combination thereof) of such puppy.
Throughout the study, the puppies are fed their respective compositions twice daily. Treats are utilized for training purposes; the treats which are used are PURINA® Puppy Canned Formula.
The study utilizes a room having a maze constructed in general accordance with the maze illustrated in FIG. 2. Referring now to FIG. 2, Point A Crate is a starting area and contains a crate with a door that cannot be seen through. This crate door is easily opened by a study technician. The crate allows immediate entrance into the maze when the door is opened. The crate door is opened either upward or flat, or by some other means such that the maze path is not obstructed. Point B Maze Symbol contains one of two symbols (i.e., a circle and square) indicating to the trained puppy where the treat will be located. The symbol is attached at a height which is easily visualized by the puppy. Point C Treat Pan is the ending location where the treat pan will be located. Point C Treat Pan is the correct designation for a maze designated left. Point D Treat Pan is the ending location where another treat pan will be located. Point D Treat Pan is the correct designation for a maze designated right.
Prior to training, each puppy is randomly assigned two symbol-direction combinations. The possible groupings are identified below as Groups A and B:
Training with assistance takes place for one week. Each puppy is trained in accordance to whether it is a Group A puppy or a Group B puppy. For Group A puppies, the puppy is trained numerous times to learn that if a treat is placed on the circle at Point B Maze Symbol, then another treat is located to the right at Point D Treat Pan. Likewise, for Group A puppies, the puppy is trained the same number of time to learn that if a treat is placed on the square at Point B Maze Symbol, then another treat is located to the left at Point C Treat Pan. Group B puppies will follow this same outline with the exception that sessions with a circle as the symbol will go to the left and a square as the symbol will go right. […]

[2] = system: purebred beagle puppies; assay: Three-door location training test (assigned door); details: all puppies regardless of group (0.18% DHA or 0.02% DHA food composition, ad libitum)
Protocol: as §1
(§2) Twelve purebred beagle puppies are randomized and assigned to either Group 1 or Group 2. Each of Groups 1 and 2 contains six of the puppies. Each of the puppies is about nine weeks of age. Their respective weights are appropriate for age and body size.
(§3) Two treatment compositions are utilized for the study. These compositions are: 1) for Group 1, a nutritionally balanced food composition comprising an essential fatty acid component comprising 0.18% DHA, by weight of the composition; and 2) for Group 2, a nutritionally balanced food composition which is similar in all respects except that the essential fatty acid component comprises 0.02% DHA, by weight of the composition.
(§4) Throughout the study, the puppies are fed their respective compositions ad libitum. Treats are utilized for training purposes; the treats which are used are PURINA® Puppy Canned Formula.
The study utilizes three doors of identical size and shape. Each puppy is randomly assigned to one of three doors along with a random symbol (circle or square) for location training. The objective of the study is to train the puppy to reach the “correct” door, i.e. the door bearing the shape which is assigned to the respective puppy. A box is marked with tape in front of each door. […]

[3] = system: purebred beagle puppies; assay: Three-door multiple shape testing (symbol as the cue); details: for puppies that passed the test on their initial testing: pass = at least 80% correct
Protocol: as §1, §2, §3, §4
Following location training, each puppy receives two days of shape training, wherein the study shapes are randomly placed on different doors simultaneously. The objective is to determine whether the puppy learns that the symbol is associated with the treat target, not the door location. Following this training, each puppy received two testing sessions to determine ability to identify the symbol as the cue. A puppy is determined to pass if at least 80% of the test is correct. Puppies that failed are given two additional days of training and are retested. A puppy is given a maximum of three attempts to pass the multiple shape testing.
Each puppy is randomly assigned a shape of either a square or a circle. The “correct” door is the door bearing the shape which is assigned to the puppy; the location of the “correct” door is systematically modified throughout the study such that the puppy must learn to identify with the shape rather than the location of the door. The puppies are trained for several days in order to learn the process of choosing the “correct” door within a time period of two minutes. Training occurs with various learning procedures, including placing a trail of treats in front of the “correct” door.
After several days of training, the learning procedures are eliminated and the puppy performs without intervention. The puppy is given two minutes to reach the “correct” door. If the puppy fails to reach the “correct” door within the two minute time period, the puppy receives an incorrect score for that attempt. If the puppy reaches the “correct” door within the two minute time period, the puppy receives a correct score for that attempt.

[4] = Group 1 (n=3): food composition about 0.14% DHA
[5] = Group 2 (n=3): food composition about 0.08% DHA
[6] = Group 3 (n=4): food composition about 0.02% DHA
[7] = Group 1 (n=6): food composition 0.18% DHA ad libitum
[8] = Group 2 (n=6): food composition 0.02% DHA ad libitum

## CC/C=C\C/C=C\C/C=C\C/C=C\C/C=C\C/C=C\CCC(=O)O [DHA, docosahexaenoic acid]
[1]; [4]
  puppies that achieved a single success criteria: 100%
  puppies that achieved two success criteria: 66%
[1]; [5]
  puppies that achieved a single success criteria: 66%
  puppies that achieved two success criteria: 0%
[1]; [6]
  puppies that achieved a single success criteria: 50%
  puppies that achieved two success criteria: 0%
[2]
  correct scores in locating the assigned location (door): greater than 90%
[3]; [7]
  puppies that passed following additional training days: 75%
  puppies that passed the test on their initial testing: 50%
[3]; [8]
  puppies that passed following additional training days: 45%
  puppies that passed the test on their initial testing: 16%

Reference: patent publication US20050075399A1, “Methods and kits for enhancing ability to learn in a puppy or kitten” (The Procter & Gamble Company, priority 2003, published 2005)
